By melting point is commonly meant the temperature of the solid-liquid transition.

The structures appear in SMILES notation.

The source of these data is a melting point compilation (Tetko et al.; mined from patent text by program, amines drawn as free bases though some values may be those of a salt).

`COc1ccc(C(=O)/C=C/c2ccc3c(c2)OCO3)c(OC)c1` gave a melting point of 137 °C.
As for `COc1ccc(OCCCc2cn(-c3ccc(C(F)(F)F)cn3)nc2C(C)C)c(CC(=O)O)c1`, the melting point lay within 143 to 144 °C.
The compound `CC(C)(C)OC(=O)C(CCCCNC(=O)c1ccc(Cl)c(S(N)(=O)=O)c1)NC1Cc2ccccc2C1` (stereo unspecified) came in with a melting point of 65 to 68 °C.
`CC(=O)C=Cc1cc2ccccc2o1` had a melting point of 100 to 101 °C.
Compound `CC(C)c1ccc(-n2c(CC(=O)O)c(C(=O)O)c3cc(Oc4ccc(Cl)c(Cl)c4)ccc32)cc1` returned a melting point of 174 to 180 °C.
In turn, `CC(C)=C(C(=O)O)c1ccc(F)cc1` registered a melting point of 124 to 126 °C.
`CN(C)c1ccncc1CCCOc1ccccc1OCCCC(=O)O` yielded a melting point of 106 to 108 °C.
With `CN1CCC(c2c[nH]c3ccc(OS(=O)(=O)c4ccc(I)cc4)cc23)CC1`, the melting point fell in the range of 174 to 176 °C.
The compound `NS(=O)(=O)c1ccc(-c2cnn(CC(F)(F)F)c(=O)c2-c2ccc(Cl)cc2)cc1` registered a melting point of 154 to 156 °C.
`ClCC(CCl)(CCl)c1cc(Cl)nnc1Cl`: the melting point was in the range of 111 to 112 °C.
With `CC(=O)N1CCc2cc(C(=O)CCCCCBr)ccc21`, the melting point fell in the range of 110 to 111 °C.
Compound `CCCN(CCc1coc2c(OC)cccc12)C1COc2c(F)ccc(C(N)=O)c2C1` (stereo unspecified) registered a melting point of 125 to 132 °C.
Regarding `O=C(O)Cc1cn(-c2ccccc2)c2ccccc12`, the melting point is 131 to 135 °C.
As for `C[C@@H]1CN(CCCn2c3ccc(O)cc3c3c4c(c(-c5ccccc5Cl)cc32)C(=O)NC4=O)C[C@H](C)N1`, the melting point fell in the range of 165 to 172 °C.
For `COc1ccc(C[C@@H](COC(C)=O)NC(=O)c2ccnc(-n3nc(-c4cccnc4)c4ccccc4c3=O)c2)cc1OC`, the melting point lay in the range of 85 to 87 °C.
`FC(F)(F)c1ccc(/C=C/c2nc(COc3ccc(-c4nc(Cn5ccnn5)co4)cc3)cs2)cc1` had a melting point of 179 to 181 °C.
As for `CCCC(C(=O)NC)n1cc(C)c(-c2ccccc2)n1` (stereo unspecified), the figure is 84 to 86 °C; as for `O=c1[nH]c2ccc(C3CCN(Cc4ccc(-c5ccccc5)cc4)CC3)cc2[nH]1`, above 260 °C.
Take `CCNc1ccc2c(c1)CN(c1c(F)cc3c(=O)c(C(=O)O)cn4c3c1OCC4C)C2` (stereo unspecified): the melting point was above 300 °C.
For `N#CCc1ccc(F)cc1I`, the melting point lay in the range of 52 to 53 °C.
Regarding `O=C([C@@H]1CSCN1C(=O)c1ccncc1)N1CCSC1`, the melting point lay within 120 to 123 °C.
For the compound `COc1ccc(C(=O)Nc2ccc(F)cc2)cc1Nc1ccccc1`, the melting point was in the range of 151 to 152 °C.
In the case of `CCCCOC(=O)CCCOc1ccc(F)c(C(N)=O)c1F`, the melting point fell in the range of 53 to 55 °C.
The same measure for `CC(=O)c1ccc(-c2ccc(Br)cc2C)cc1`: 84 to 86 °C; for `CCOC(=O)c1c(O)cc(C(F)(F)F)nc1C(F)(F)F`: 70 to 77 °C.
With `CC(C)OC(=O)CC(NCCCN(C)C)C(=O)O` (stereo unspecified), the melting point was in the range of 164 to 166 °C.
`CCC(CC)Oc1nc(C)nc2c1[nH]c(=O)n2-c1c(C)cc(C)cc1C` came in with a melting point of 159 to 160 °C.
In the case of `O=C(NC1CCN(CCCc2ccc(F)cc2)CC1)C1=Cc2cnc3cccc(n23)S1`, the melting point lay in the range of 117 to 119 °C.
With `CCC1(CC)C(=O)c2cc(OC)c(C)c(C)c2C1=O`, the melting point was 80 to 81 °C.
As for `O=C(C(=C1SCS1)c1ccncc1)c1ccc(Cl)cc1`, the figure is 149 to 151 °C; as for `CCOC(=O)c1cnn(-c2c(Cl)cc(Cl)cc2Cl)c1C`, 112 to 113 °C.
As for `COc1c(C)cc2ccccc2c1C(CC(=O)O)C(=O)O` (stereo unspecified), the melting point came out at 159 °C.
The compound `COc1cc([C@@H]2c3cc4c(cc3C(=O)C[C@H]2C(=O)O)OCO4)cc(OC)c1OC` (relative stereo) showed a melting point of 221 to 223 °C.
As for `CC(C)(C)c1ccc(N2CCNCC2)cc1`, the melting point was in the range of 48 to 52 °C.
The same measure for `COc1ccc(CCCC2(Br)C(=O)NC(=O)NC2=O)cc1`: 113 to 114 °C; for `CSc1ccc(-c2nn(Cc3ccccc3)c(=O)cc2-c2ccc(F)cc2)cc1`: 141 °C.
